From patent EP4790048A1, “S1PR4 REGULATOR COMPOUND FOR AUTOIMMUNE DISEASE TREATMENT AND APPLICATION THEREOF” (Shengyuan Zetong (Shanghai) Pharmaceutical Co., Ltd, priority 2023, dated 2025)

Biological target: T1, hS1P4 (Homo sapiens, UniProt O95977)
T1 construct: expressed in transfected cells; host or cells: CHO
T1 sequence (O95977 1-384): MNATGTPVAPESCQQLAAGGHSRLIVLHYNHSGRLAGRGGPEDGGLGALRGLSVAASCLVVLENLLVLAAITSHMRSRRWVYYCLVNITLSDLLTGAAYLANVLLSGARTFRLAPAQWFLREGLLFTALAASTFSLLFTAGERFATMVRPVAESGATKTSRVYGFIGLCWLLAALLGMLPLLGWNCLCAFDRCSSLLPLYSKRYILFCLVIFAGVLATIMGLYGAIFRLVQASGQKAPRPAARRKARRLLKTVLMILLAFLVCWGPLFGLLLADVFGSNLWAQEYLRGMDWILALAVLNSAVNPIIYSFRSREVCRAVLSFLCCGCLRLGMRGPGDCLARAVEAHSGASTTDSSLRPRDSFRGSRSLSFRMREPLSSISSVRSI
Assay: Tango β-arrestin recruitment luciferase assay, Tango-hS1P4-CHO
Assay type: cell-based
Conditions: β-arrestin recruitment; 20 h drug treatment; top 45 µM, 9 serial 5-fold dilutions; positive control 25 µM BAF-312; read-out: Tango-hS1P4-CHO EC50
Source text: The Tango assay detects ligand-dependent GPCR activity through the interaction between β-arrestin and GPCRs. […] The NTEV fragment and the tetracycline transactivator (tTA), an artificial transcription factor, are fused at the C-terminus of the GPCR, while the CTEV fragment is fused to human β-arrestin 2. To enhance the stability of the interaction between GPCR and β-arrestin, a short sequence from the C-terminus of the human arginine vasopressin receptor 2 (V2 tail) is inserted between the GPCR and NTEV. The V2 tail contains multiple GRK phosphorylation sites, which strengthen β-arrestin binding upon phosphorylation. The CTEV fragment carries the stabile point mutation S219P and is truncated at residue 221 to remove the autoinhibitory C-terminal tail. Meanwhile, β-arrestin 2 is truncated to lack the entire C-terminal tail (residues 383-410 deleted). This truncation confers robust stimulus-dependent receptor desensitization, thereby improving detection sensitivity compared with wild-type β-arrestin 2. The UAS reporter construct consists of upstream activating sequence (UAS) elements, a minimal CMV promoter, and a tTA-dependent luciferase reporter gene. Therefore, constructing Tango cells requires the co-transfection of the above three plasmids into host cells. Upon GPCR activation and β-arrestin recruitment, the TEV enzyme at the β-arrestin terminus cleaves tTA from the GPCR C-terminus. The released tTA initiates tTA-dependent luciferase transcription, and compound activity is ultimately determined by measuring luminescence intensity.
• 1) Tango cell line from was digested from the culture dish respectively. After cell counting, the cells were plated at a density of 10,000 cells per well with […] into a white opaque 96-well plate (add 60 µL D'Hanks to the surrounding wells), and incubated overnight (20 h) in a 5% CO2 incubator at 37°C. The cell density will reach approximately 90% the next day. • 2) After 20 h, 30 µL of serially diluted compound solution was added to each well. The control group was supplemented with 30 µL F12K complete medium. Each group had three replicate wells. • 3) Samples were collected after 20 h of drug treatment.
(All compounds were tested at a final concentration of 45 µM, with 9 serial dilutions at 5-fold intervals. 1 µM BAF-312 was used as the positive control for S1PR1, and 25 µM BAF-312 was used as the positive control for S1PR4.

EC50 | SMILES
4.22 ± 1.19 nM | CCc1cc(/C(C)=N/OCc2ccc(-c3cnc(O)cn3)c(C)c2)ccc1CN1CC[C@H](C(=O)O)C1 [Compound 5, (S, E)-1-(2-ethyl-4-(1-(((3-methyl-4-(5-hydroxypyrazin-2-yl)-benzyl)oxy)imino)ethyl)benzyl)pyrrolidine-3-carboxylic acid]
2.91 ± 0.01 nM | CCc1cc(/C(C)=N/OCc2ccc(-c3ccsc3)c(C)c2)ccc1CN1CC[C@H](C(=O)O)C1 [Compound 41, (S, E)-1-(2-ethyl-4-(1-(((3-methyl-4-(thiophen-3-yl)benzyl)oxy)imino)ethyl)benzyl)pyrrolidine-3-carboxylic acid]
4.67 nM | CCc1cc(/C(C)=N/OCc2ccc(-c3ccc(F)cc3F)c(C)c2)ccc1CN1CC[C@H](C(=O)O)C1 [Compound 47, (S, E)-1-(2-ethyl-4-(1-(((2',4'-difluoro-2-methyl-[1,1'-biphenyl]-4-yl)methoxy)imino)ethyl)benzyl)pyrrolidine-3-carboxylic acid]
7.02 ± 0.59 nM | CCc1cc(/C(C)=N/OCc2ccc(-c3ccc(F)nc3)c(C)c2)ccc1CN1CC[C@H](C(=O)O)C1 [Compound 53, (S, E)-1-(2-ethyl-4-(1-(((4-(6-fluoropyridin-3-yl)-3-methylbenzyl)oxy)imino)ethyl)benzyl)pyrrolidine-3-carboxylic acid]
3.33 ± 2.5 nM | CCc1cc(/C(C)=N/OCc2ccc(C3=CCCCC3)c(C)c2)ccc1CN1CC[C@H](C(=O)O)C1 [Compound 61]
3.31 ± 0.24 nM | CCc1cc(/C(C)=N/OCc2ccc(C3CCCC3)c(C)c2)ccc1CN1CC[C@H](C(=O)O)C1 [Compound 62, (S, E)-1-(2-ethyl-4-(1-(((4-cyclopentyl-3-methylbenzyl)oxy)imino)ethyl)benzyl)pyrrolidine-3-carboxylic acid]
5.86 ± 0.27 nM | CCc1cc(/C(C)=N/OCc2ccc(C3=CCCC3)c(C)c2)ccc1CN1CC[C@H](C(=O)O)C1 [Compound 63]
7.77 ± 1.02 nM | CCc1cc(/C(C)=N/OCc2ccc(-c3ccccc3F)c(F)c2)ccc1CN1CC[C@H](C(=O)O)C1 [Compound 64]
8.28 ± 0.38 nM | CCc1cc(/C(C)=N/OCc2ccc(-c3ccc(F)nc3)c(F)c2)ccc1CN1CC[C@H](C(=O)O)C1 [Compound 69, (S, E)-1-(2-ethyl-4-(1-(((3-fluoro-4-(6-fluoropyridin-3-yl)benzyl)oxy)imino)ethyl)benzyl)pyrrolidine-3-carboxylic acid]

Continued, compound first:

SMILES | EC50
C/C(=N\OCc1ccc(C2CCCCC2)c(C(F)(F)F)c1)c1ccc(CNCCCC(=O)O)cc1 [Compound 8, (E)-4-((4-((1-((4-cyclohexyl-3-(trifluoromethyl)benzyl)oxy)imino)ethyl)benzyl)amino)butanoic acid] | 2400 nM
C/C(=N\OCc1ccc(C2CCCCC2)c(C(F)(F)F)c1)c1ccc(CN2CC(C(=O)O)C2)c(Br)c1 [Compound 12, (E)-1-(2-bromo-4-(1-((4-cyclohexyl-3-(trifluoromethyl)benzyl)oxy)imino)ethyl)azetidine-3-carboxylic acid] | 2250 nM
CCc1cc(/C(C)=N/OCc2cccc(C(F)(F)F)c2)ccc1CN1CC(C(=O)O)C1 [Compound 13] | 3240 nM
CCc1cc(/C(C)=N/OCc2ccc(OC(C)C)c(C#N)c2)ccc1CN1CC(C(=O)O)C1 [Compound 16, (E)-1-(4-(1-(((3-cyano-4-isopropoxybenzyl)oxy)imino)ethyl)-2-ethylbenzyl)azetidine-3-carboxylic acid] | 3320 nM
COc1cc(/C(C)=N/OCc2ccc(C3CCCCC3)c(C(F)(F)F)c2)ccc1CN1CC(C(=O)O)C1 [Compound 27] | 1700 nM
CCc1cc(/C(C)=N/OCc2ccc(-c3ccsc3)cc2)ccc1CN1CC[C@H](C(=O)O)C1 [Compound 56] | 5.05 ± 1.84 nM
CCc1cc(/C(C)=N/OCc2ccc(-c3cnn(C)c3)cc2F)ccc1CN1CC[C@H](C(=O)O)C1 [Compound 58] | > 10000 nM
CCc1cc(/C(C)=N/OCc2ccc(C3CCCCC3)c(C)c2)ccc1CN1CC[C@H](C(=O)O)C1 [Compound 60, (S, E)-1-(2-ethyl-4-(1-(((4-cyclohexyl-3-methylbenzyl)oxy)imino)ethyl)benzyl)pyrrolidine-3-carboxylic acid] | 71.7 nM
